According to patent publication US11510931B2, “Compositions and methods for treating ophthalmic conditions” (MEDICON PHARMACEUTICALS, INC., priority 2016, dated 2022):

Legend:
IL-6 = IL-6 in culture medium of human conjunctival cells (ELISA); assay type: cell-based
Experimental: Cells were treated with PS 1×IC50 and 2 h later TNF-α was added to the medium to a final concentration of 10 ng/ml. Culture media were harvested 24 h later and the levels of TGF-β, IL-6 and IL-8 were determined by ELISA. Of note, the levels of IL-1β were below the limit of detection.

TGF-β = TGF-β in culture medium of human conjunctival cells (ELISA); assay type: cell-based
Experimental: Culture media were harvested 24 h later and the levels of TGF-β, IL-6 and IL-8 were determined by ELISA. Of note, the levels of IL-1β were below the limit of detection.

[1] = Biodistribution of PS in porcine eyes (ex vivo); assay type: in vitro ADME, pig; settings: porcine eye ex vivo, 2% PS nanoparticle solution
Text: Biodistribution of PS in porcine eyes (ex vivo): Explanted pig eyes were exposed to PS nanoparticle solution (PS concentration was 2%) and treated as were the human eyes.

[2] = test system: cataract surgery plus LPS-induced ocular inflammation in rabbits; assay: Ocular inflammation after cataract surgery plus intravitreal LPS in rabbits; assay type: in vivo, rabbit; settings: PS 3.5% in nanoparticles
Experimental: The anti-inflammatory effect of PS in New Zealand white rabbits was evaluated following cataract surgery and administration of the proinflammatory bacterial lipopolysaccharide (LPS). Briefly, the lens was removed by phacoemulsification and aspiration and replaced with the hydrophobic acrylic intraocular lens (AR40e, AMO). Upon completion of the operation, 1 μg of LPS dissolved in 10 μl PBS was injected into the vitreous to induce uveitis.
Rabbits were treated with PS 3.5% formulated in nanoparticles or vehicle (nanoparticles without PS) applied topically as eye drops three times per day. The first application was made within 1 h after completion of surgery. The rabbits were examined daily and the aqueous humor (AH) was sampled by needle aspiration on days 1, 3, and 5 following the injection of LPS. The number of infiltrating cells in the AH was determined following standard methods. On day 5, the rabbits were euthanized and the implanted lens was removed and fixed in 2.5% glutaraldehyde and the number of inflammatory cells attached to the lens was examined under a dissecting microscope.

eyes of rabbits = assay: Safety of topically applied PS in rabbits (toxicity, intraocular pressure, corneal melt, slit lamp); assay type: in vivo, rabbit
Text: The Safety of Topically Applied PS.

NF-κB = NF-κB activation in the ILG of rabbits with DED; assay type: in vivo, rabbit; settings: 1 week of treatment, vs vehicle
Experimental: Human conjunctival cells were treated with various concentrations of PS. Five hours later, TNF-α was added to the culture medium to a final concentration of 10 ng/ml and the status of NF-κB activation was determined by EMSA 1 h later. […] Similarly, after 1 week of treatment, PS suppressed NF-κB activation in the ILG of rabbits with DED compared to those treated with vehicle.

IL-8 = IL-8 levels in the ILG of rabbits with DED (ELISA); assay type: in vivo, rabbit
Experimental: Using this model, we compared the effect of PS to that of cyclosporine and lifitegrast. Rabbits were treated for 6 days with PS as above or cyclosporine 0.05% or lifitegrast 5% eye drops 3×/day. In addition to determining TUBT, osmolarity and STT, we measured the levels of IL-8 and IL-1β in the ILGs of the rabbits harvested at euthanasia. Both of these cytokines are significant mediators of inflammation in DED. As shown in the table below, PS had statistically significant effects on TBUT, tear osmolarity, IL-8 and IL-1β levels. […] Of note, lifitegrast suppressed STT below the levels of the vehicle group and this suppression was statistically significant, but in the opposite direction for a useful therapeutic effect.
Moreover, for all three cytokines PS suppressed their unstimulated levels as well (62%, 84% and 4.7% reduction, respectively). In addition, PS suppressed the levels of IL-8 by 64% and IL-1β (not expressed by the cultured cells) by 61% in the ILG of rabbits treated with PS for 1 week compared to controls treated with vehicle (FIG. 8B). TGF-β was not detectable by the method in ILG homogenates. All these changes were statistically significant (p<0.001-0.04, except for the unstimulated TGF-β).

[3] = Biodistribution of PS in human eyes (ex vivo); assay type: in vitro ADME; settings: human eye ex vivo, 10 min contact, 60 min incubation
Experimental: Biodistribution of PS in human eyes (ex vivo): Human cadaveric eyes were obtained through the Lions Eye Bank for Long Island, Valley Stream, NY. They were preserved on ice and used within 2 h from removal from the donors.
The anterior surface of the human eye (corresponding to an area slightly larger than the palpebral fissure) was brought into direct contact with a PS HP-β-CD solution (PS concentration at 0.5%, 2.0% and 3.3%) and incubated for 10 min at 37° C. The eye was then rinsed with 10% dimethylsulfoxide (DMSO) to remove residual PS from the surface of the eye and incubated in PBS for 60 min. […] At the specified times, ocular tissues were dissected and PS levels determined by HPLC. The Table below summarizes the findings.

[4] = TNF-α-stimulated, PS 1×IC50, media at 24 h
[5] = exposure/incubation 1/15 min/min
[6] = exposure/incubation 1/60 min/min
[7] = exposure/incubation 10/15 min/min
[8] = exposure/incubation 10/60 min/min
[9] = rabbits, 2 weeks of daily PS 3.6% eye drops
[10] = weekly during a 1-month application of PS

For `CCOP(=O)(OCC)OCCCCOC(=O)CC1=C(C)/C(=C/c2ccc([S+](C)[O-])cc2)c2ccc(F)cc21` (stereo not drawn) [PS, phosphosulindac], the IL-6 reduction (IL-6; [4]) was 95%, the IL-6 reduction (IL-6; unstimulated levels, PS 1×IC50) was 84% and the TGF-β reduction (TGF-β; [4]) was 19%. The TGF-β reduction (TGF-β; unstimulated levels, PS 1×IC50, not statistically significant) was 4.7%, the “PS in Cornea” value [1, 5] was 51.5 µM and the “PS in Lens” value [1, 5] was 9.5 µM. For the same molecule, the “PS in Sclera” value [1, 5] was 86.6 µM, the “PS in Cornea” value [1, 6] was 99.8 µM and the “PS in Lens” value [1, 6] was 4.8 µM. For the same molecule, the “PS in Sclera” value [1, 6] was 123.9 µM, the “PS in Cornea” value [1, 7] was 97.1 µM and the “PS in Lens” value [1, 7] was 1.9 µM. The “PS in Sclera” value [1, 7] was 89.9 µM, the “PS in Cornea” value [1, 8] was 170.6 µM and the “PS in Lens” value [1, 8] was 2.1 µM. For the same molecule, the “PS in Sclera” value [1, 8] was 47.9 µM, the “ocular inflammation (clinical appearance)” value ([2]; eye drops three times per day, first 24 h of treatment, FIG. 13) was “essentially eliminated” and the “number of inflammatory cells in aqueous humor (AH)” value ([2]; day 3, eye drops three times per day, FIG. 14) was under 70000 mL⁻¹. For the same molecule, the “inflammatory cells attached to the implanted lens” value ([2]; day 5) was “very few or no cells”, the “Intraocular pressure (Tonopen)” value (eyes of rabbits; 1-month application of PS) was “remained normal” and the signs of uveitis (eyes of rabbits; 1-month application of PS) was “No animal developed signs of uveitis”. For the same molecule, the “tolerability of ocular application” value (eyes of rabbits; rabbits) was “very well tolerated”, the “keratitis or corneal melting (ophthalmological examination)” value (eyes of rabbits; rabbits treated for up to 3 weeks) was “no evidence of keratitis or corneal melting” and the intraocular pressure (eyes of rabbits; [9]) was “no changes in intraocular pressure”. For the same molecule, the “topical or systemic toxicity” value (eyes of rabbits; [9]) was “no evidence of topical or systemic toxicity”, the “slit lamp examination: conjunctiva” value (eyes of rabbits; [10]) was “no evidence of follicular/papillary response or injection of the conjunctiva” and the “slit lamp examination: corneal abnormalities (staining defects, vascularization, opacification, epithelial defects, stromal thinning, melts)” value (eyes of rabbits; [10]) was “nor were there signs of corneal abnormalities”. For the same molecule, the “NF-κB activation in the ILG” value (NF-κB) was “suppressed”, the “IL-8 in the ILG” value (IL-8; Con A DED rabbits, 6 days, eye drops 3×/day, PS nanoparticles, cyclosporine 0.05%, lifitegrast 5%, mean ± SEM) was 4.9 ± 1.7 pg/mg protein and the “suppression of IL-8 levels in the ILG” value (IL-8; rabbits treated with PS for 1 week vs vehicle) was 64%. The “PS in Aqueous” value ([3]; 0.5% PS HP-β-CD solution) was 2.4 µM, the “PS in Choroid” value ([3]; 0.5% PS HP-β-CD solution) was 28.5 µM and the “PS in Cornea” value ([3]; 0.5% PS HP-β-CD solution) was 187.2 µM. The “PS in Iris” value ([3]; 0.5% PS HP-β-CD solution) was 25.6 µM, the “PS in Lens” value ([3]; 0.5% PS HP-β-CD solution) was 0.6 µM and the “PS in Retina” value ([3]; 0.5% PS HP-β-CD solution) was 2.9 µM. The “PS in Sclera” value ([3]; 0.5% PS HP-β-CD solution) was 381.3 µM, the “PS in Vitreous” value ([3]; 0.5% PS HP-β-CD solution) was 0.3 µM and the “PS in Cornea” value ([3]; 2.0% PS HP-β-CD solution) was 397.7 µM. For the same molecule, the “PS in Iris” value ([3]; 2.0% PS HP-β-CD solution) was 34.2 µM, the “PS in Lens” value ([3]; 2.0% PS HP-β-CD solution) was 1.4 µM and the “PS in Retina” value ([3]; 2.0% PS HP-β-CD solution) was 38.7 µM. The “PS in Sclera” value ([3]; 2.0% PS HP-β-CD solution) was 870.9 µM, the “PS in Aqueous” value ([3]; 3.3% PS HP-β-CD solution) was 19.5 µM and the “PS in Choroid” value ([3]; 3.3% PS HP-β-CD solution) was 261.4 µM. For the same molecule, the “PS in Cornea” value ([3]; 3.3% PS HP-β-CD solution) was 266.4 µM, the “PS in Iris” value ([3]; 3.3% PS HP-β-CD solution) was 169.3 µM and the “PS in Lens” value ([3]; 3.3% PS HP-β-CD solution) was 1.9 µM. For the same molecule, the “PS in Retina” value ([3]; 3.3% PS HP-β-CD solution) was 48.5 µM, the “PS in Sclera” value ([3]; 3.3% PS HP-β-CD solution) was 2,596.6 μM and the “PS in Vitreous” value ([3]; 3.3% PS HP-β-CD solution) was 4.3 µM.
